Results published in patent US8569298B2, “Pyridine compounds” (Astrazeneca AB, priority 2008, dated 2013).

Target: T1, FAK enzyme (6 His tagged kinase domain, GenBank NP—722560) (Homo sapiens, UniProt Q05397)
T1 construct: 6 His; made in house; host or cells: insect cell culture infected with baculovirus
Experiment: In vitro enzyme assay (a): sandwich ELISA of FAK tyrosine kinase activity on polyGAT peptide, TMB colorimetric endpoint
Assay type: biochemical
Details: in vitro Enzyme Assay test (a); ATP at Km; geometric mean of n > 1 measurements, values marked * tested once
Experimental: (a) In Vitro Enzyme Assay
A sandwich ELISA assay with a 3,3′,5,5′-tetramethyl benzidine (TMB) colorimetric endpoint was used in order to determine the level of effect of selected compounds on inhibition of FAK protein tyrosine kinase enzyme activity. A synthetic tyrosine containing peptide is coated onto a plastic surface, the level of phosphorylation of these tyrosine residues by the kinase enzyme in the presence of inhibitors is measured using an antibody that binds specifically to phosphorylated tyrosine residues. The amount of antibody bound to substrate is proportional to the level of enzyme catalysis.
Assay Protocol to Identify Inhibitors of Focal Adhesion Kinase (FAK).
A PlateMate Plus™ 384 automated liquid handling unit with a 100 μl disposable tip head was used to make all the non compound reagent additions and a Tecan 384PW plate washer with 384 head was used for all wash steps. Initially Matrix 384 well polystyrene plates (Cat #:4311) were coated with 40 μl/well of a 0.0375 mg/ml solution of synthetic poly peptide (polyGAT, Sigma Cat #:P3899) dissolved in phosphate buffered saline (PBS). Plates were stored overnight at 4° C. Immediately before use the coating solution was aspirated out and each well washed with 2×100 μl of PBS+0.05% Tween 20. To remove surplus phosphate, the wells were then washed with 2×100 μl 50 mM HEPES buffer pH 7.4. Plates were blotted dry before the addition of compounds. Compounds were tested over a 12 point dose range, a Labcyte Echo 550 was used to dispense compounds in nl volumes and back fill with DMSO. The final concentration of compound in the assay was dependent on the starting concentration of compound. For a 10 mM stock compound the final assay dose ranged from 100 μM down to […]. Control wells containing 120 nl DMSO (Max) or 120 nl of 10 mM staurosporine (LC Laboratories, Boston, USA Cat #: S-9300) (Min) were included in each plate. 10 ul of 5% dimethyl sulfoxide v/v (DMSO, Fisher Scientific) was added to each well immediately prior to addition of 10 μl of a co-factor solution containing 80 mM MgCl2 (Sigma Cat #: M1028); 80 mM MnCl2 (Sigma Cat #: M1787); ATP at a concentration calculated to enable the initial reaction velocity to progress at half the maximum velocity (Km for ATP) (Sigma Cat #:A7699). A final addition of 20 μl of enzyme solution containing 100 mM HEPES pH7.4; 0.2 mM sodium vanadate (Sigma Cat #:S6508); 0.2 g/l bovine serum albumin (BSA, Sigma Cat #: A7888); 0.2 mM dithioreitol (Sigma Cat #: 5545); 0.1% Triton X100 (Sigma Cat #:X100); FAK enzyme (20 μl/ml) was made to each well to start the assay running FAK enzyme was generated from an insect culture infected with baculo virus containing the DNA sequence encoding the 6 His tagged kinase domain (GenBank NP_722560).
Plates were left at room temperature for 25 minutes before 10 μl of 500 mM ethylenediaminetetraacetic acid (EDTA) was added to stop the assay and the wells were immediately washed 3×100 μl with PBS+0.05% Tween 20. A 4G10 antibody (Millipore Cat #: 16-105; 16-184) with a directly conjugated horse radish peroxidase (HRP) was used to detect the phosphorylation of the substrate by the FAK. 40 μl of PBS+0.05% Tween 20 containing 0.5% BSA and 0.1 μl/ml antibody was added to each well and left for 1 hour at room temperature to allow the antibody to bind. After this period the wells were again washed with 3×100 μl of PBS+0.05% Tween 20. TMB (Sigma Cat #: T2885) was used as a substrate for the HRP. Phosphate-citrate buffer was made up using capsules provided by Sigma (Cat #: P4922) following the manufacturers guidelines. TMB was dissolved at a concentration of 1 mg/ml in DMSO and let down to a final concentration of 0.05 mg/ml with the phosphor-citrate buffer. 40 μl of the TMB solution was added to each assay well and left for 30 minutes for the blue colour to develop. […]

T1 sequence (Q05397 422-680 limits assumed): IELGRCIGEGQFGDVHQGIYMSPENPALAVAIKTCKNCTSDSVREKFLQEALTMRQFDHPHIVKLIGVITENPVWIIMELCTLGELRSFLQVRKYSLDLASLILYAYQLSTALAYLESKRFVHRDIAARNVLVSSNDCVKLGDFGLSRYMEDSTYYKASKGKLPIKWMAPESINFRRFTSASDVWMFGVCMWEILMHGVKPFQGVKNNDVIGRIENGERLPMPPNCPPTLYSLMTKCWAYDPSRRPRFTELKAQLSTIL

IC50 | Compound
967 nM | CNC(=O)c1ccccc1Nc1cc(Nc2cnn(CC(=O)N3CCCN(C)CC3)c2)ncc1F [Example 4.04, 2-[[5-fluoro-2-[[1-[2-(4-methyl-1,4-diazepan-1-yl)-2-oxo-ethyl]pyrazol-4-yl]amino]-4-pyridyl]amino]-N-methyl-benzamide]
25 nM | Cc1nn(C)cc1Nc1cc(Nc2cccc3c2C(=O)N(C)CCO3)c(Cl)cn1 [Example 3.22, 6-[[5-Chloro-2-[(1,3-dimethylpyrazol-4-yl)amino]-4-pyridyl]amino]-4-methyl-2,3-dihydro-1,4-benzoxazepin-5-one]
55 nM | CNC(=O)c1cccc(F)c1Nc1cc(Nc2cn(C)nc2C)ncc1Cl [Example 3.39, 2-[[5-Chloro-2-[(1,3-dimethylpyrazol-4-yl)amino]-4-pyridyl]amino]-3-fluoro-N-methyl-benzamide]
275 nM | CNC(=O)c1ccccc1Nc1cc(Nc2cn(C)cn2)ncc1Cl [Example 3.18, 2-[[5-chloro-2-[(1-methylimidazol-4-yl)amino]-4-pyridyl]amino]-N-methyl-benzamide]
41 nM | CN1CCc2cccc(Nc3cc(Nc4cnn(C)c4)ncc3Cl)c2C1=O [Example 3.28, 8-[[5-Chloro-2-[(1-methylpyrazol-4-yl)amino]-4-pyridyl]amino]-2-methyl-3,4-dihydroisoquinolin-1-one]
121 nM | Cc1nn(C)cc1Nc1cc(Nc2cccc3c2C(=O)N(C)CC3)c(F)cn1 [Example 4.12, 8-[[2-[(1,3-Dimethylpyrazol-4-yl)amino]-5-fluoro-4-pyridyl]amino]-2-methyl-3,4-dihydroisoquinolin-1-one]
4 nM | Cc1cc(Nc2cc(Nc3cccc4c3C(=O)N(C)CC4)c(C#N)cn2)nn1C [Example 1.05, 6-[(1,5-dimethylpyrazol-3-yl)amino]-4-[(2-methyl-1-oxo-3,4-dihydroisoquinolin-8-yl)amino]pyridinc-3-carbonitrile]
3380 nM | CNC(=O)c1ccccc1Nc1cc(Nc2cnn(C3CCOCC3)c2)ncc1F [Example 4.09, 2-[[5-fluoro-2-[(1-tetrahydropyran-4-ylpyrazol-4-yl)amino]-4-pyridyl]amino]-N-methyl-benzamide]
676 nM | CN1CCc2cccc(Nc3cc(Nc4cnn(C5CCCNC5)c4)ncc3F)c2C1=O (centres unmarked) [Example 4.18, 8-[[5-fluoro-2-[[1-(3-piperidyl)pyrazol-4-yl]amino]-4-pyridyl]amino]-2-methyl-3,4-dihydroisoquinolin-1-one]
128 nM | CN1CCC(n2cc(Nc3cc(Nc4cccc5c4C(=O)N(C)CC5)c(C#N)cn3)cn2)CC1 [Example 1.07, 4-[(2-methyl-1-oxo-3,4-dihydroisoquinolin-8-yl)amino]-6-[[1-(1-methyl-4-piperidyl)pyrazol-4-yl]amino]pyridine-3-carbonitrile]

The next lines start with the molecule.

Compound | IC50
CNC(=O)c1ccccc1Nc1cc(Nc2cnn(CC(=O)N3CCCN(C)CC3)c2)ncc1Cl [Example 3.04, 2-[[5-chloro-2-[[1-[2-(4-methyl-1,4-diazepan-1-yl)-2-oxo-ethyl]pyrazol-4-yl]amino]-4-pyridyl]amino]-N-methyl-benzamide] | 68 nM
CCn1nccc1Nc1cc(Nc2cccc3c2C(=O)N(C)CC3)c(Cl)cn1 [Example 6.06, 8-[[5-chloro-2-[(2-ethylpyrazol-3-yl)amino]-4-pyridyl]amino]-2-methyl-3,4-dihydroisoquinolin-1-one] | 4 nM
CNC(=O)c1ccccc1Nc1cc(Nc2cc(C3CC3)[nH]n2)ncc1Cl [Example 3.17, 2-[[5-chloro-2-[(5-cyclopropyl-1H-pyrazol-3-yl)amino]-4-pyridyl]amino]-N-methyl-benzamide] | 93 nM
Cc1cc(Nc2cc(Nc3ccccc3C(=O)NOCCO)c(C(F)(F)F)cn2)n(C)n1 [Example 15.08, 2-[[2-[(2,5-dimethylpyrazol-3-yl)amino]-5-(trifluoromethyl)-4-pyridyl]amino]-N-(2-hydroxyethoxy)benzamide] | 620 nM
COCCN(C)C(=O)Cn1cc(Nc2cc(Nc3cccc4c3C(=O)N(C)CC4)c(Cl)cn2)cn1 [Example 3.25, 2-[4-[[5-chloro-4-[(2-methyl-1-oxo-3,4-dihydroisoquinolin-8-yl)amino]-2-pyridyl]amino]pyrazol-1-yl]-N-(2-methoxyethyl)-N-methyl-acetamide] | 27 nM
CNC(=O)c1ccccc1Nc1cc(Nc2cn(C(C)C)nc2C)ncc1C(F)(F)F [Example 13.02, 2-[[2-[(1-isopropyl-3-methyl-pyrazol-4-yl)amino]-5-(trifluoromethyl)-4-pyridyl]amino]-N-methyl-benzamide] | 21 nM
CN1CCc2cccc(Nc3cc(Nc4cn(C)nc4C#N)ncc3Cl)c2C1=O [Example 12.05, 4-[[5-chloro-4-[(2-methyl-1-oxo-3,4-dihydroisoquinolin-8-yl)amino]-2-pyridyl]amino]-1-methyl-pyrazole-3-carbonitrile] | 20 nM
Cc1nn(CCO)cc1Nc1cc(Nc2cccc3c2C(=O)N(C)CC3)c(Cl)cn1 [Example 13.05, 8-[[5-chloro-2-[[1-(2-hydroxyethyl)-3-methyl-pyrazol-4-yl]amino]-4-pyridyl]amino]-2-methyl-3,4-dihydroisoquinolin-1-one] | 4 nM
CNC(=O)c1ccccc1Nc1cc(Nc2cnn(CC(=O)N3CCCC3)c2)ncc1Cl [Example 3.03, 2-[[5-Chloro-2-[[1-(2-oxo-2-pyrrolidin-1-yl-ethyl)pyrazol-4-yl]amino]-4-pyridyl]amino]-N-methyl-benzamide] | 80 nM
CCn1cc(Nc2cc(Nc3cccc4c3C(=O)N(C)CC4)c(Cl)cn2)c(C)n1 [Example 6.04, 8-[[5-chloro-2-[(1-ethyl-3-methyl-pyrazol-4-yl)amino]-4-pyridyl]amino]-2-methyl-3,4-dihydroisoquinolin-1-one] | 6 nM
CNC(=O)c1cc(OC)ccc1Nc1cc(Nc2cn(C)nc2C)ncc1C(F)(F)F [Example 10.01, 2-[[2-[(1,3-dimethylpyrazol-4-yl)amino]-5-(trifluoromethyl)-4-pyridyl]amino]-5-methoxy-N-methyl-benzamide] | 8 nM
CNC(=O)c1ccccc1Nc1cc(Nc2cn(C(F)F)nc2C)ncc1C(F)(F)F [Example 13.03, 2-[[2-[[1-(difluoromethyl)-3-methyl-pyrazol-4-yl]amino]-5-(trifluoromethyl)-4-pyridyl]amino]-N-methyl-benzamide] | 50 nM
CN1CCc2cccc(Nc3cc(Nc4ccn(C5CCNCC5)n4)ncc3F)c2C1=O [Example 4.19, 8-[[5-fluoro-2-[[1-(4-piperidyl)pyrazol-3-yl]amino]-4-pyridyl]amino]-2-methyl-3,4-dihydroisoquinolin-1-one] | 83 nM
CNC(=O)c1ccccc1Nc1cc(Nc2cnn(C3CCNCC3)c2)ncc1Cl [Example 3.19, 2-[[5-Chloro-2-[[1-(4-piperidyl)pyrazol-4-yl]amino]-4-pyridyl]amino]-N-methyl-benzamide] | 686 nM
CNC(=O)c1ccccc1Nc1cc(Nc2cnn(C)c2)ncc1F [Example 4.08, 2-[[5-Fluoro-2-[(1-methylpyrazol-4-yl)amino]-4-pyridyl]amino]-N-methyl-benzamide] | 2190 nM
CNC(=O)c1ccccc1Nc1cc(Nc2ccnn2C)ncc1C(F)(F)F [Example 8.01, N-methyl-2-[[2-[(2-methylpyrazol-3-yl)amino]-5-(trifluoromethyl)-4-pyridyl]amino]benzamide] | 6 nM
